Holding throughout (test): ≥ marks a high value that may be exact or a test limit, other limits are often not marked, values filed in µg/mL are converted to µM
Assay [1] deals with Bacillus subtilis KCTC 1998.
The subject of assay [2] is Escherichia coli ATCC 25922.
In assay [3] the test system is Pseudomonas aeruginosa ATCC 15692.
Assay [4] has as its system Staphylococcus aureus ATCC 25923.
The subject of assay [5] is Acinetobacter baumannii CCARM 12035.
For assay [6], the system named is Bacillus subtilis KCTC 3068.
For assay [7], the system named is Enterococcus faecalis KCTC 2011.
The subject of assay [8] is Escherichia coli CCARM 1229.
For assay [9], the system named is Escherichia coli KCTC 1682.
Assay [10] concerns Pseudomonas aeruginosa CCARM 2095.
For assay [11], the system named is Pseudomonas aeruginosa KCTC 1637.
Assay [12] concerns Salmonella typhimurium CCARM 8009.
In assay [13] the test system is Salmonella typhimurium KCTC 1926.
Assay [14] relates to Staphylococcus aureus KCTC 1621.
Assay [15] relates to Pseudomonas aeruginosa ATCC 15442.
The test system of assay [16] is Staphylococcus aureus ATCC 29213.
For assay [17], the system named is Staphylococcus aureus ATCC 6538.
The test system of assay [18] is Staphylococcus epidermidis RP62A.
The subject of assay [19] is Acinetobacter baumannii ATCC 15308.
For assay [20], the system named is Citrobacter sp.
The test system of assay [21] is Enterobacter cloacae.
Assay [22] has as its system Klebsiella pneumoniae.
For assay [23], the system named is Staphylococcus aureus.
Assay [24] relates to Streptococcus pneumoniae.
Assay [25] relates to Candida albicans ATCC 90028.
In assay [26] the test system is Candida albicans SC5314.
Assay [27] has as its system Candida krusei ATCC 6258.
Assay [28] relates to Candida parapsilosis ATCC 22019.
In assay [29] the test system is Enterococcus faecium ATCC 700221.
Assay [30] concerns Pseudomonas aeruginosa ATCC 27853.
In assay [31] the test system is Staphylococcus aureus ATCC 33591.
The subject of assay [32] is Erwinia amylovora PMV 6076.
In assay [33] the test system is Pseudomonas syringae pv. syringae EPS 94.
Assay [34] relates to Acinetobacter baumannii ATCC BAA-1605.
For assay [35], the system named is Klebsiella pneumoniae ATCC 700603.

≈ marks a conversion by molar mass, not a printed value.

The values below come from DBAASP.

Broadly, the MIC is the least concentration at which growth counts as inhibited. A low value points to greater potency. On to `CC[C@H](C)[C@H](NC(=O)[C@H](CCCCN)NC(=O)[C@H](CO)NC(=O)[C@@H]1CCCN1C(=O)[C@H](CC(C)C)NC(=O)[C@H](CCCCN)NC(=O)[C@@H]1CCCN1C(=O)[C@H](CC(C)C)NC(=O)[C@H](CCCN=C(N)N)NC(=O)[C@H](CCCCN)NC(=O)[C@H](Cc1ccccc1)NC(=O)[C@@H](NC(=O)[C@H](CCCCN)NC(=O)[C@H](CCCCN)NC(=O)[C@H](C)N)C(C)C)C(=O)N[C@@H](Cc1c[nH]c2ccccc12)C(=O)N[C@@H](CC(N)=O)C(=O)N[C@@H](Cc1c[nH]c2ccccc12)C(=O)N[C@@H](CCCCN)C(N)=O` [AKKVFKRLPKLPSKIWNWK], for which the minimal inhibitory concentration (MIC) in assay [1] is 1 µM (≈ 2.37 µg/mL); in assay [2], 2 µM (≈ 4.73 µg/mL); in assay [3] it was 2 µM (≈ 4.73 µg/mL); in assay [4] it was 8 µM (≈ 18.9 µg/mL).
As to `CC(C)[C@H](NC(=O)[C@H](C)N)C(=O)N[C@@H](C)C(=O)N[C@H](C(=O)N[C@H](C(=O)NCC(=O)N[C@@H](CCC(N)=O)C(=O)N[C@@H](C)C(=O)N[C@@H](C)C(=O)N[C@H](C(=O)N[C@H](C(=O)N[C@H](C(=O)N[C@@H](CCCCN)C(N)=O)C(C)C)C(C)C)[C@@H](C)O)C(C)C)C(C)C` [AVAVVGQAATVVK], the MIC in assay [5], in assay [6], in [7], in assay [8], in assay [9] and in assay [10] was no less than 128 µM in each case. Besides, the MIC in [11], in assay [12], in assay [13] and in assay [14] was no less than 128 µM in each case.
For `CC[C@H](C)[C@H](NC(=O)[C@@H](N)CCC(=O)O)C(=O)N[C@@H](CCC(=O)O)C(=O)N[C@@H](CCCCN)C(=O)N[C@@H](Cc1ccccc1)C(=O)N[C@@H](CC(=O)O)C(=O)N[C@@H](CCCCN)C(=O)N[C@@H](CO)C(=O)N[C@@H](CCCCN)C(=O)N[C@@H](CC(C)C)C(=O)N[C@@H](CCCCN)C(=O)O` [EIEKFDKSKLK], the MIC in assay [15] is no less than 9160 µM; in [4], 9160 µM (≈ 12500 µg/mL); in [16] it was 4540 µM (≈ 6200 µg/mL); in assay [17], 9160 µM (≈ 12500 µg/mL); in [18], no less than 9160 µM.
For the compound `CC(C)C[C@H](NC(=O)[C@H](CCCCN)NC(=O)[C@H](CO)NC(=O)[C@H](CCCCN)NC(=O)[C@H](CC(=O)O)NC(=O)[C@H](Cc1ccccc1)NC(=O)[C@H](CO)NC(=O)[C@H](C)NC(=O)[C@@H](NC(=O)[C@@H](N)CCC(=O)O)C(C)C)C(=O)N[C@@H](CCCCN)C(=O)O` [EVASFDKSKLK], the MIC in [15] is no less than 9990 µM; in assay [4], 9990 µM (≈ 12500 µg/mL); in assay [16], 9990 µM (≈ 12500 µg/mL); in assay [17], 9990 µM (≈ 12500 µg/mL); in [18] it was no less than 4950 µM.
For `CC[C@H](C)[C@H](NC(=O)[C@H](CCSC)NC(=O)[C@H](C)NC(=O)[C@@H]1CCCN1C(=O)[C@@H](NC(=O)[C@H](CCCN=C(N)N)NC(=O)[C@H](CCCCN)NC(=O)[C@@H](NC(=O)[C@H](CC(C)C)NC(=O)CNC(=O)CNC(=O)[C@H](CC(C)C)NC(=O)[C@@H](N)Cc1ccccc1)[C@@H](C)CC)C(C)C)C(=O)N[C@H]1CSSC[C@@H](C(=O)O)NC(=O)[C@H](CCCCN)NC(=O)[C@H](CCCCN)NC(=O)[C@H](CCCN=C(N)N)NC(=O)[C@H](C(C)C)NC(=O)[C@H](C)NC1=O` [FLGGLIKRVPAMICAVRKKC], the MIC in [19] was no less than 113 µM; in [20], no less than 113 µM; in [21], no less than 113 µM; in assay [2], greater than 113 µM; in assay [22] it was greater than 113 µM; in [15], no less than 113 µM. Moreover, the figures for the MIC in assay [4], in [23] and in assay [24] were greater than 113 µM, greater than 113 µM and no less than 113 µM, respectively.
Take `CC[C@H](C)[C@H](NC(=O)CN)C(=O)N[C@@H](Cc1c[nH]c2ccccc12)C(=O)N[C@@H](CCCCN)C(=O)N[C@@H](CCCCN)C(=O)N[C@@H](Cc1c[nH]c2ccccc12)C(=O)N[C@H](C(=O)N[C@@H](CCCCN)C(=O)N[C@@H](CCCCN)C(=O)N[C@@H](Cc1c[nH]c2ccccc12)C(=O)N[C@@H](CC(C)C)C(=O)N[C@@H](CCCCN)C(=O)N[C@@H](CCCCN)C(=O)N[C@@H](CC(C)C)C(=O)N[C@@H](CCCCN)C(=O)N[C@@H](CC(N)=O)C(=O)N[C@@H](CC(C)C)C(=O)N[C@@H](Cc1ccccc1)C(N)=O)[C@@H](C)CC` [GIWKKWIKKWLKKLKNLF]: the MIC in [25] worked out at 27.1 µM (≈ 64 µg/mL); in [26] it was 13.6 µM (≈ 32 µg/mL); in [27] it was 6.79 µM (≈ 16 µg/mL); in assay [28], 13.6 µM (≈ 32 µg/mL).
As for `CC[C@H](C)[C@H](NC(=O)[C@H](CCCCN)NC(=O)[C@H](CCCCN)NC(=O)[C@H](CC(C)C)NC(=O)[C@H](CC(C)C)NC(=O)[C@H](CCCCN)NC(=O)[C@H](CCCCN)NC(=O)[C@@H](NC(=O)[C@@H](NC(=O)[C@H](CC(=O)O)NC(=O)[C@H](Cc1ccccc1)NC(=O)[C@H](CC(C)C)NC(=O)CN)C(C)C)[C@@H](C)CC)C(=O)N[C@@H](CCCCN)C(=O)NCC(=O)N[C@@H](CC(C)C)C(N)=O` [GLFDVIKKLLKKIKGL], the MIC worked out at 1.6 µM (≈ 2.9 µg/mL) in [29], 3.1 µM (≈ 5.62 µg/mL) in assay [2], 12.5 µM (≈ 22.7 µg/mL) in assay [30] and 3.1 µM (≈ 5.62 µg/mL) in [31].
On to `CC[C@H](C)[C@H](NC(=O)[C@H](CCCCN)NC(=O)[C@H](CCCCN)NC(=O)[C@H](Cc1ccccc1)NC(=O)[C@H](CC(C)C)NC(=O)[C@H](CCCCN)NC(=O)[C@H](CCCCN)NC(=O)[C@H](C)NC(=O)[C@@H]1CCCN1C(=O)CNC(=O)[C@H](C)NC(=O)[C@H](CC(C)C)NC(=O)[C@H](Cc1ccc(O)cc1)NC(=O)[C@H](CCCCN)NC(=O)[C@H](CC(C)C)NC(=O)[C@@H](NC(=O)[C@H](CCCCN)NC(=O)[C@H](CCCCN)NC(=O)[C@H](Cc1ccccc1)NC(=O)[C@H](CC(C)C)NC(=O)[C@H](CCCCN)NC(=O)[C@@H](N)CCCCN)[C@@H](C)CC)C(=O)N[C@@H](CC(C)C)C(=O)N[C@@H](CCCCN)C(=O)N[C@@H](Cc1ccc(O)cc1)C(=O)N[C@@H](CC(C)C)C(=O)O` [KKLFKKILKYLAGPAKKLFKKILKYL], for which the MIC in assay [32] and in assay [33] was 3.54 µM (≈ 11 µg/mL) throughout.
For `CC[C@H](C)[C@H](NC(=O)[C@H](CCCN=C(N)N)NC(=O)[C@H](CCCCN)NC(=O)[C@H](Cc1ccccc1)NC(=O)[C@H](CC(C)C)NC(=O)[C@H](CCCCN)NC(=O)[C@@H](N)CCCN=C(N)N)C(=O)N[C@@H](CC(C)C)C(=O)N[C@@H](CCCCN)C(=O)N[C@@H](Cc1ccc(O)cc1)C(=O)N[C@@H](CC(C)C)C(N)=O` [RKLFKRILKYL], the MIC in assay [34] is no less than 46.7 µM; in assay [29] it was no less than 186 µM; in assay [2], 186 µM (≈ 275 µg/mL); in assay [35], 93 µM (≈ 137 µg/mL); in assay [30], 93 µM (≈ 137 µg/mL); in assay [31] it was no less than 93 µM.
